From US20230084354A1, “NUTRACEUTICAL EXTRACTS OF HIPPOPHAE RHAMNOIDES AND TERMINALIA CHEBULA AND USES THEREOF” (Biomics, LLC, priority 2020, published 2023) come the findings set out here.

The subject of this assay is Human peripheral blood mononuclear cell (PBMC) cultures. Nature of the assay: CD69 and CD25 expression in human PBMC cultures, direct effects. Type of assay: cell-based. To be noted: direct effect, 24 hours, vs untreated control; extract at the highest dose.

Description: Next, the immune-modulating effects of the extract were tested. Human peripheral blood mononuclear cell (PBMC) cultures were used for this testing. A set of cultures were left untreated as negative control cultures for immune activation. Triplicate sets of cultures were treated with serial dilutions of the test product. The inflammatory bacterial lipopolysaccharide LPS from E. coli was used as a positive control for activation. The cultures were incubated for 24 hours, after which the cells and the culture supernatants were harvested and used to monitor the reactions in each culture. The cells were used for immunostaining and flow cytometry, specifically to evaluate the induction of two activation markers, CD69 and CD25, on NK cells, NKT cells, T lymphocytes, and monocytes/macrophages.

Take Poly I:C: the “CD69 expression on NK cells” value was “increase”.
